Experimental data taken from patent US20230123497A1, “NOVEL ANTIBACTERIAL HYDROGELS” (NewSouth Innovations Pty Limited, priority 2020, published 2023).
Values joined by “and” are separate entries in the source; they are usually repeats but may differ in a detail not shown here. Equal entries are not always repeated. One block for each molecule: values may come before it.

Experiments:
Format in all cases: physicochemical
[1] = Hydrogel formation, vial inversion test (critical gel concentration)
From the text: (§1) The simplest method to determine whether a suitable hydrogel has formed is to use the vial inversion test. Through visual inspection, a material can be categorised as a solution, viscous solution, partial gel, or solid-like gel. A stable hydrogel needs to be able to hold its weight and/or maintain its shape during this assessment.
(§2) The critical gel concentration (CGC) is defined as the minimum mass of a short peptide required to provide a self-supporting hydrogel per unit volume in the vial inversion test (measured as % w/v).
(§3) Pre-weighed samples of short peptide 4 were prepared in aluminium-covered glass vials and Milli-Q water and 2 equivalents of NaOH (1.0 M) were added to make up concentrations of 1% w/v. The resulting suspensions were vortexed for 5 minutes to provide clear yellow solutions with pH 11.
(§4) To create a high ionic strength environment, 1 equivalent of NaCl was added and the vial was left to stand without disturbance for 3 hours at room temperature. Meanwhile, as an attempt to form a hydrogel by lowering the pH, 2 equivalents of GdL were added to a high pH solution of 4 followed by gentle mixing. These vials were inverted and allowed to stand overnight to confirm the hydrogel formation.
(§5) The formation of hydrogel 4 via the solvent switch method was conducted by dissolving short peptide 4, in an aluminium covered glass vial, with either 50% methanol, ethanol, or dimethyl sulfoxide (DMSO). Respective amounts of Mili-Q water were added to make up concentrations of 1% w/v.
(§6) In addition, gelation time was defined as the time (hours) required for 1% w/v of short peptide 4 to form a hydrogel which can be turned upside down without collapsing.
(§7) Pre-weighed samples of short peptides 10a-17a, 18, and 19 were prepared in glass vials with 10 mm internal diameter, and Milli-Q water was added to make up concentrations of 1% w/v. The resulting suspensions of short peptides 13, 18, and 19 (as ammonium or guanidinium salts) were slowly warmed until all solid had completely dissolved. GdL (1.5 to 2.0 equivalents) was added to the suspension of short peptides 10a-17a, before heat was applied. To create a high ionic strength environment, 1-5 equivalents of NaCl was added to the viscous solution of 10a-17a to make the total volume up to 1 mL, followed by gentle mixing, and the vial was left to stand without disturbance for 3 hours at room temperature. Subsequently, these vials were inverted and allowed to stand overnight to confirm hydrogel formation.

[2] = Frequency sweep test (FST), rheometer; settings: for G′: 1% w/v
Experimental: The mechanical properties of anthranilamide-based cationic hydrogels were assessed using an Anton Paar MCR 302 rheometer with a 25 mm stainless parallel plate configuration.
(§8) Initially, 1 mL of hydrogels were prepared from short peptides 11-13 and 15-19 in glass vials at concentration of 1% w/v. These vials were warmed using a heat gun to transform the hydrogel to the solution phase. Subsequently, 560 μL of the resulting solutions were cast onto the rheometer plate. The other plate was lowered to the measuring position ([…]) and the hydrogel was allowed to stand for 3 hours for the gel to form. The FST was conducted at fixed strain of 0.1% and frequency ranging from 10 Hz to 0.01 Hz. Meanwhile, the strain sweep test (SST) was performed at a frequency of 1 Hz using 0.1% strain to 100% strain. The rheology data were shown as the average of three repeats for each data point.
(§9) The mechanical properties of hydrogels 4 (formed via addition of NaCl or GdL) before and after blue light irradiation were also assessed using an Anton Paar MCR 302 rheometer with a 25 mm stainless parallel plate configuration. Prior to the hydrogel formation, 560 μL of solution phase of short peptide 4 at 1% w/v were transferred onto a rheometer plate. Meanwhile, hydrogel 4, which had been exposed to blue light, was warmed using a heat gun, to provide its solution phase. Subsequently, 560 μL of this solution phase was cast onto the rheometer plate. The other plate was lowered to the measuring position ([…]) and the hydrogel was allowed to stand for 3 hours for the gel to form. The frequency sweep test (FST) was conducted at fixed strain of 0.1% and frequency ranging from 10 Hz to 0.01 Hz. Meanwhile, the SST was performed at a frequency of 1 Hz using 0.1% strain to 100% strain. In addition, the temperature sweep test was conducted to obtain transition glass (Tg) using fixed frequency of 1 Hz and fixed strain of 0.1% with temperature ramping from 25° C. to 90° C. The rheology data were shown as the average of three repeats for each data point.
In the FST, samples were measured over a range of oscillation frequencies (0.1-10 rad/s) at fixed strain, temperature, and oscillation amplitude. Higher frequencies simulate fast motion on a short time-scale, while low frequencies simulate slow motion on a long time-scale, or rest. All of the hydrogels made from the anthranilamide-based short cationic peptides, which passed the vial inversion test, were subjected to the FST using a rheometer to precisely assess their mechanical properties.

[3] = Strain sweep test (SST), linear viscoelastic region
Experimental: as §8, §9
To observe the structural decay in anthranilamide-based cationic hydrogels, the SST was performed by imposing a non-linear strain. SST provides information about the viscoelastic properties of a hydrogel through determination of its linear viscoelastic region (LVER). […] Here, the LVER reported for each hydrogel represents the deviation of storage modulus (G′) from linearity, known as yield point (γy). Yield points have been reported to reflect a point where the rigidity of a hydrogel starts to weaken.

[4] = Atomic force microscopy (AFM) of fibers
Experimental: Hydrogels of NO-releasing short peptide 4 (1 drop), at high pH, low pH, and after irradiation, were cast onto a mica substrate. Hydrogels of cationic short peptides 11-13 and 15-19 were prepared at their CGC, 2× below, and 4× below CGC in glass vials. Prior to gelation, one drop of the cationic short peptide solutions was cast onto a mica substrate. Using a glass slide, each droplet was carefully spread and was left to dry overnight before imaging. Imaging was performed using a Bruker Multimode 8 Atomic Force Microscope in Scanasyst Air (PeakForce Tappings) mode, which is based on tapping mode AFM. To prevent damage of soft samples, the imaging parameters were constantly optimized through the force curves that were collected. Bruker Scanasyst-Air probes were used, with a spring constant of 0.4-0.8 N·m^−1 and a tip radius of 2 nm.
To gain some insight on the mechanism of antibacterial action, the released solutions from hydrogel made of primary ammonium 11 were directly cast onto a mica substrate. […] After gently spreading using a glass slide and left to dry overnight, these samples were imaged using a similar manner as describe above.

[5] = Hydrogel formation, vial inversion test (critical gel concentration); parameters: key: VS: viscous solution; CG: clear gel
From the text: as §1, §2, §3, §4, §5, §6, §7

[6] = hydrogels 11-13 at 1% w/v, FST fixed strain 0.1%

Time (gelation time) ([1]; solvent switch, DMSO 50 % v/v, 1% w/v): Immed.
Time (gelation time) ([1]; solvent switch, EtOH 5 % v/v): Immed.
Time (gelation time) ([1]; solvent switch, EtOH 50 % v/v, 1% w/v): Immed.
Time (gelation time) ([1]; solvent switch, MeOH 50 % v/v, 1% w/v): Immed.
CGC (critical gel concentration) ([1]; solvent switch, co-solvent DMSO 50 % v/v): 0.4 % w/v
CGC (critical gel concentration) ([1]; solvent switch, co-solvent EtOH 50 % v/v): 0.4 % w/v
CGC (critical gel concentration) ([1]; solvent switch, co-solvent MeOH 50 % v/v): 0.4 % w/v
Time (self-assembly/gelation) ([1]; trigger NaOH): 48 h
pH ([1]; trigger NaOH): 11
Time (self-assembly/gelation) ([1]; trigger NaOH + GdL): 1 h
pH ([1]; trigger NaOH + GdL): 5.5 and 5.2
CGC (critical gel concentration) ([1]; trigger NaOH + GdL (pH switch)): 0.2 % w/v
CGC (critical gel concentration) ([1]; trigger NaOH + NaCl): 0.2 % w/v
Time (self-assembly/gelation) ([1]; trigger NaOH + NaCl): 3 h
pH ([1]; trigger NaOH + NaCl): 11
G′/G″ ([2]; hydrogel 4 at pH 5.5-6): 17
G″ ([2]; hydrogel 4 at pH 5.5-6): 0.6 kPa
G′ ([2]; hydrogel 4 at pH 5.5-6 (low pH, GdL), before irradiation): 10.2 kPa
G′/G″ ([2]; hydrogel 4 at pH 11): 12
G″ ([2]; hydrogel 4 at pH 11): 1.1 kPa
G′ ([2]; hydrogel 4 at pH 11 (high pH, NaCl)): 13.2 kPa
G′ after irradiation ([2]; hydrogel 4 irradiated (λ=440-450 nm) for 2 hours, after NO release): 4.9 kPa
% strain (LVER) ([3]; hydrogel 4 at pH 5.5-6): 1.4%
% strain (LVER) ([3]; hydrogel 4 at pH 11): 1.2%
diameter of larger (bundled) fibers ([4]; hydrogel 4, before irradiation): 104±4 nm
fiber diameter ([4]; hydrogel 4 formed at high pH): 40±3 nm
fiber diameter ([4]; hydrogel 4 formed at low pH): 43±5 nm
fiber bundle diameter after irradiation ([4]; hydrogel 4 irradiated for 2 hours (blue light)): 68±6 nm
Remarks (gel state) ([5]; trigger NaOH): VS
Remarks (gel state) ([5]; trigger NaOH + GdL): CG
Remarks (gel state) ([5]; trigger NaOH + NaCl): CG
SMILES: O=C(Nc1ccccc1C(=O)N[C@@H](Cc1ccccc1)C(=O)N[C@@H](Cc1ccccc1)C(=O)O)c1ccc([N+](=O)[O-])c(C(F)(F)F)c1 [Compound 4, (2-(4-Nitro-3-(trifluoromethyl)benzamido)benzoyl)-L-phenylalanyl-L-phenylalanine]

CGC ([1]; cationic peptides 10-14, triggers GdL, heat and NaCl (13: heat and NaCl)): 0.1 % w/v
pH ([1]; hydrogels of cationic peptides 10-14): 5.5
G′/G″ ratio ([2]; hydrogels 11-13 at 1% w/v): 11.9
G′ (modulus storage) [2, 6]: 0.83 kPa
G″ (modulus loss) [2, 6]: 0.07 kPa
LVER (linear viscoelastic region) ([3]; hydrogels at 1% w/v, SST at 1 Hz, 0.1% to 100% strain): 0.98 ± 0.05%
fiber bundle diameter ([4]; hydrogel after addition of salt, 4× below CGC): 115±5 nm
diameter of fibers in the released solution ([4]; solution released from hydrogel 11, below CGC): 47±4.9 nm
fiber diameter ([4]; viscous solution without salt, 0.05% w/v): 74±6 nm
Remarks (gel state) ([5]; cationic peptides 10-14, vial inversion test): CG
SMILES: NCCCNC(=O)[C@H](Cc1ccccc1)NC(=O)c1ccccc1NC(=O)c1ccc2ccccc2c1 [Compound 11]
